The values below come from patent US20160199364A1, “SEIZURE TREATMENT COMPOSITIONS AND METHODS” (Creighton University, priority 2015, published 2016).

The nature of one data set: Body weight. The class given is in vivo, mouse. As to conditions: pioglitazone 10 mg/kg/day i.p., five days; Kv1.1WT or Kv1.1KO mice.
Data set [1] concerns hippocampal mossy fiber-CA3 synapse and CA3 network. The experiment in a line: Acute hippocampal slice multielectrode array recordings after in vivo treatment. Also on record: species or system mouse. To be noted: Kv1.1KO mice treated in vivo (pioglitazone 10 mg/kg/day i.p. or KD), hippocampal slices. As to the method: (§1) Dietary and pharmacological treatments. […] For dietary experiments involving Kv1.1WT and Kv1.1KO mice, drinking water contained either 0.0323% DMSO vehicle or GW9662 ([…]) to obtain an average dosage of 1.062±0.038 mg/kg/day (n=18). There was no difference in the average daily water consumption or resulting GW9662 dosage between experimental groups (see FIG. 2H). […] Three hours after the last pioglitazone injection, mice were euthanized and brains processed for western blot, electrophysiology, or mitochondria experiments.
Acute hippocampal slice preparation and multielectrode array recordings. […] Spontaneous and evoked extracellular potentials were recorded with Mobius v2 software (Witwerx Inc., Tustin, Calif., USA) and acquired at a 20 kHz sampling rate with a bandwidth of 0.1 Hz-10 kHz. Post-synaptic field potentials and short-term plasticity of the mossy fiber (MF)-CA3 synapse were obtained by successive paired stimulations (50 ms inter-stimulus interval, 50% maximal intensity) of Dentate granule cell mossy fibers located in the hilar region and recorded in CA3 stratum lucidum. Paired pulse facilitation was calculated by dividing the slope (10-90%) of stimulation 2 by the slope of stimulation 1 and presented as the percent above stimulation 1. […]

Data set [2] concerns mitochondrial respiratory complex I (MRCI). The experiment in a line: Oxygen polarography of isolated cortical mitochondria after in vivo treatment. The arrangement: species or system mouse. As to conditions: Kv1.1KO mice treated in vivo (pioglitazone 10 mg/kg/day i.p. or KD). The protocol:
as §1
Mitochondrial isolation and oxytherm polarography. Mice were anesthetized with isoflurane and cortical tissue was quickly micro-dissected on ice. Tissue was homogenized in isolation buffer (5×V/V in mM: 215 mannitol, 75 sucrose, 1 EGTA 20 HEPES and 0.1% BSA, pH 7.2 adjusted with KOH) and mitochondria were isolated using differential centrifugation. Isolated mitochondria were resuspended in isolation buffer without EGTA. Protein concentrations were determined with Bradford assay. […] Oxygen polarography was measured using a standard Clark-type electrode (Hanstech Instruments, Ltd., Norfolk, England). […] Only samples with a respiratory control ratio greater than 4 were analyzed. Unbiased assessment of the rate of oxygen consumption was determined using computer-generated line of best-fit algorithm and nmol of oxygen mg^−1 min^−1 was calculated.

Data set [3] has as its system spontaneous recurrent seizures in epileptic Kv1.1 knockout (KO) mice. The experiment in a line: Spontaneous recurrent seizures by 24 hr video-EEG (seizure incidence, seizure burden index). Format: in vivo, mouse. The protocol:
as §1
Intracranial electroencephalography electrode implantation and seizure analysis. On P27, mice underwent surgical implantation of electrodes. Mice were maintained under isoflurane anesthesia and normothermic conditions. One ground (1.5 mm anterior lamba, 1.5 mm lateral) and two subdural (1 mm posterior Bregma, 1.5 mm bilateral) intracranial cortical electroencephalographic (iEEG) electrodes were implanted, secured, and attached to a headmount. […] EEG recordings were acquired with a 250 Hz sampling rate and band-pass filtered between 0.5 and 40 Hz. During seizure monitoring, mice were single-housed in hexagon cages. EEG recordings were imported into Spike2 v6-7 software (Cambridge Electronic Design, Cambridge, England) for initial seizure identification using time-frequency analysis. […] Incidence and severity of each seizure was scored for the first 15 minutes of each hour during the time period of highest seizure occurrence for Kv1.1KO mice (00:00-08:00). Seizure severity was scored using a modified Racine scale: 0—normal; 1—myoclonic jerk or “pop;” 2—side-to-side head movement; 3—forelimb/hindlimb clonus, tail extension, a single rearing event; 4—continuous rearing and falling; 5—severe tonic-clonic seizures. To weigh the incidence and severity of seizures, seizure burden index (SBI) scores were calculated using the equation: SBI=[Σ(σiγi)]/ε, where σ indicates the severity; i indicates each stage of seizure (1-5); γ is the incidence; and ε indicates the total number of epochs scored.

In the case of `CCc1ccc(CCOc2ccc(CC3SC(=O)NC3=O)cc2)nc1` (stereo not shown) [pioglitazone], in “Body weight”, the body weight entry is “did not change”. In data set [1] (CA3 network), the “attenuation of HFO (high frequency oscillation) incidence” value was around 60%. The “increase of mossy fiber paired pulse facilitation” value in data set [1] is around 45%. The “improvement of mitochondrial respiration (MRCI State III)” value in data set [2] was around 80%.

Take `O=C(Nc1ccccc1)c1cc([N+](=O)[O-])ccc1Cl` [GW9662]: in data set [3] (GW9662 ~1 mg/kg/day co-administered throughout KD treatment, Kv1.1KO mice), the KD anti-seizure efficacy result is “prevented”. Besides, the “Kv1.1KO seizures (worsening)” value in data set [3] (GW9662 ~1 mg/kg/day in drinking water, Kv1.1KO mice) is “did not worsen”. Moreover, in data set [3] (GW9662 ~1 mg/kg/day in drinking water, WT mice), the “induction of spontaneous seizures in WT mice” value is recorded as “did not”.
